Target: T1, GATOR2/Sestrin2 complexes (Homo sapiens, UniProt P58004)
T1 construct: endogenous in cells; host or cells: HEK293T cells stably expressing FLAG-WDR24 (lentiviral, pLJM60)
T1 sequence (P58004 1-480): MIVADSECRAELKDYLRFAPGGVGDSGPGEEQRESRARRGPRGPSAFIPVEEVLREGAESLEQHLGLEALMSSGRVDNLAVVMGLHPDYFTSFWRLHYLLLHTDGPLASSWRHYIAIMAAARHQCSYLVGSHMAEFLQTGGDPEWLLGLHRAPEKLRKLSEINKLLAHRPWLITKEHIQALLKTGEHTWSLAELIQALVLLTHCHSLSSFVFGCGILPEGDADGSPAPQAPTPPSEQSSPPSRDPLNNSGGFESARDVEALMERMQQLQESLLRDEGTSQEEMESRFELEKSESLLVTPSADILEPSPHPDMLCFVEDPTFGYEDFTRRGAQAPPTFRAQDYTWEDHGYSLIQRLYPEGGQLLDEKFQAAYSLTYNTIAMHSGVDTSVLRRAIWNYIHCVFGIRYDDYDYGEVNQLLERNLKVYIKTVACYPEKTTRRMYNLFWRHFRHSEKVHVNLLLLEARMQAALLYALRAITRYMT
Assay: In vitro PPI assay (Method 1; Western blot assay): Sestrin2 bound to GATOR2 after compound addition to immunoprecipitated FLAG-WDR24 complex
Format: binding
Details: 25 μM, % activity relative to leucine (25 μM = 100%)
Description: This screening assay measured test compound activity in vitro on GATOR2/Sestrin2 complexes purified via immunoprecipitation of stably expressed FLAG-WDR24 from HEK293T cells. HEK293T cells (293 Ts) were engineered to stably express N-terminally tagged FLAG-WDR24 via transduction by lentivirus. Lentiviruses were produced by co-transfection of the lentiviral transfer vector pLJM60 with the […] into HEK-293T cells using the XTremeGene 9 transfection reagent (Roche Diagnostics). The media was changed 24 hours post-transfection to Dulbecco's Modified Eagle's media (DMEM) supplemented with 30% Inactivated Fetal Serum. The virus-containing supernatants were collected 48 and 72 hours after transfection and passed through a 0.45 μm filter to eliminate cells. Target cells in 6-well tissue culture plates were infected in media containing 8 μg/mL polybrene and spin infections were performed by centrifugation at 2,200 rpm for 1 hour. Twenty-four hours after infection, the virus was removed and the cells selected with the appropriate antibiotic. Cells were then grown in DMEM supplemented with 10% fetal bovine serum and antibiotics.
Seventy-two hours later, cells were placed in standard RPMI media formulated with no amino acids and supplemented with 5 mM Glucose (−AA RPMI, US Biological Life Sciences) for 1 hour then subsequently lysed in lysis buffer (40 mM HEPES, 1% Triton, 10 mM sodium β-glycerophosphate, 10 mM sodium pyrophosphate, 2.5 mM MgCl2 and protease inhibitors). To isolate the FLAG-WDR24/endogenous-Sestrin2 complex, crude lysate (equivalent to 2-4 mg of total protein) in a volume of 1 ml was subjected to immunoprecipitation with 30 μl of anti-flag resin (SIGMA) for 2 hours at 4° C., washed twice in cold lysis buffer plus 0.5M NaCl and resuspended in 1 ml of cold cytosolic buffer (40 mM HEPES pH 7.4, 140 mM KCl, 10 mM NaCl, 2.5 mM MgCl2, 0.1% TritonX-100). […] After the incubation period, samples were centrifuged to pellet the FLAG-WDR24/endogenous-Sestrin2 complex bound to the anti-flag resin, the supernatant was completely removed and resin was resuspended in SDS-PAGE sample buffer and boiled for 5 minutes. Samples were then processed by SDS-PAGE and western blots were performed with anti-FLAG (SIGMA) and anti-Sestrin2 (Cell Signaling Technology) antibodies as described in L. Chantranupong, et al., Cell Reports 9:1-8 (2014).
The resulting western blots were scanned and band intensities corresponding to Sestrin2 and FLAG-WDR24 were quantified using the LI-COR® imaging platform. To determine the amount of Sestrin2 bound to GATOR2 for each condition, the band intensity for Sestrin2 was normalized to the band intensity of FLAG-WDR24. […]
72 hours later, cells were placed in standard RPMI media formulated with no amino acids and supplemented with 5 mM Glucose (−AA RPMI, USBiological Life Sciences) for 1 hour then subsequently lysed in lysis buffer (40 mM HEPES, 1% Triton, 10 mM Sodium Beta-Glycerophosphate, 10 mM Sodium Pyrophosphate, 2.5 mM MgCl2 and protease inhibitors). The Flag-WDR24/endogenous-Sestrin2 complex was isolated as follows: crude lysate (equivalent to 2-4 mg of total protein) in a volume of 1 ml was subjected to immunoprecipitation (IP) with 30 μl of anti-flag resin (SIGMA) for 2 hours at 4° C., washed twice in cold lysis buffer plus 0.5M NaCl and resuspended in 1 ml of cold cytosolic buffer (40 mM HEPES pH 7.4, 140 mM KCl, 10 mM NaCl, 2.5 mM MgCl2, 0.1% TritonX-100). Compounds were then added to each sample at a given concentration of 25 μM and incubated with rotation at 4° C. for 30 minutes. After the incubation period, samples were centrifuged to pellet the Flag-WDR24/endogenous-Sestrin2 complex bound to the anti-flag resin, the supernatant was completely removed and resin was resuspended in sodium dodecyl sulfate-polyacrylamide gel electrophoresis (SDS-PAGE) sample buffer and boiled for 5 minutes. […]

| Structure (SMILES) | Activity of Leucine: % Activity |
| --- | --- |
| CC(C[C@@H](N)C(=O)O)C(F)(F)F (stereo in doubt) [Compound I-146, (2R,4S)-2-amino-5,5,5-trifluoro-4-methylpentanoic Acid] | A (a % activity relative to leucine of ≥40%) |
| CC(C)C[C@H](NC(=O)C1CCCCC1)C(=O)O [Compound I-22, (S)-2-(Cyclohexanecarboxamido)-4-methylpentanoic Acid] | C (a % activity relative to leucine of between -40 and 40%) |
| CC(C[C@H](N)C(=O)O)C(F)(F)F (stereo in doubt) [Compound I-145, (2S,4R)-2-amino-5,5,5-trifluoro-4-methylpentanoic Acid] | A (a % activity relative to leucine of ≥40%) |
| CC(C)[C@H](O)[C@H](N)C(=O)O [Compound I-27] | A (a % activity relative to leucine of ≥40%) |
| CC(C)C[C@H](N)C(=O)NC(C)(C)C [Compound I-165] | A to C |
| CCCC[C@H](N)C(=O)O [Compound I-31] | A (a % activity relative to leucine of ≥40%) |
| N[C@@H](CCCC(F)(F)F)C(=O)O [Compound I-8, (S)-2-amino-6,6,6-trifluorohexanoic Acid] | B (a % activity relative to leucine of ≤−40%) |
| N[C@@H](CCC(F)(F)F)C(=O)O [Compound I-6, (S)-2-amino-5,5,5-trifluoropentanoic Acid] | C (a % activity relative to leucine of between -40 and 40%) |
| Cl.N[C@H](CCCCC(F)(F)F)C(=O)O [Compound I-3, (R)-2-amino-7,7,7-trifluoroheptanoic Acid Hydrochloride] | B (a % activity relative to leucine of ≤−40%) |
| CC(C)C[C@H](N)C(=O)N(C)CC(C)C [Compound I-152] | C (a % activity relative to leucine of between -40 and 40%) |
| CC(C)C[C@H](N)C(=O)N(C(C)C)C(C)C [Compound I-150] | C (a % activity relative to leucine of between -40 and 40%) |
| Cl.N[C@@H](CCCCC(F)(F)F)C(=O)O [Compound I-2, (S)-2-amino-7,7,7-trifluoroheptanoic Acid Hydrochloride] | B (a % activity relative to leucine of ≤−40%) |
| CN[C@@H](CC(C)(C)C)C(N)=O [Compound I-49] | C (a % activity relative to leucine of between -40 and 40%) |
| N[C@@H](CC1CC1)C(=O)O [Compound I-35] | A (a % activity relative to leucine of ≥40%) |
| CC(C)C[C@H](NC(C)C)C(=O)O [Compound I-13, (S)-2-(isopropylamino)-4-methylpentanoic Acid] | C (a % activity relative to leucine of between -40 and 40%) |
| CC(C)C[C@H](N)C(=O)N1CCCC[C@@H]1C [Compound I-153] | C (a % activity relative to leucine of between -40 and 40%) |
| CN(C)[C@@H](CC(C)(C)C)C(=O)O [Compound I-159] | A (a % activity relative to leucine of ≥40%) |
| N[C@@H](CC(C(F)(F)F)C(F)(F)F)C(=O)O [Compound I-164, (S)-2-Amino-5,5,5-trifluoro-4-(trifluoromethyl)pentanoic Acid] | A (a % activity relative to leucine of ≥40%) |

| Structure (SMILES) | Activity of Leucine: % Activity |
| --- | --- |
| CC(C)CN[C@@H](CC(C)C)C(=O)O [Compound I-14, (S)-2-(isobutylamino)-4-methylpentanoic Acid] | B (a % activity relative to leucine of ≤−40%) |
| CC(C)C[C@H](N)CC(=O)O [Compound I-34] | C (a % activity relative to leucine of between -40 and 40%) |
| CC(C)C[C@H](N)C(=O)NS(C)(=O)=O.Cl [Compound I-147, (S)-2-amino-4-methyl-N-(methylsulfonyl)pentanamide Hydrochloride] | A (a % activity relative to leucine of ≥40%) |
| CC(C)C[C@H](N)C(=O)NC(C)C [Compound I-166] | C (a % activity relative to leucine of between -40 and 40%) |
| CC(C)C[C@H](N)C(=O)N(C)C1CCCC1 [Compound I-162] | C (a % activity relative to leucine of between -40 and 40%) |
| CC(C)C[C@H](Nc1ccccc1)C(=O)O [Compound I-26, (S)-4-methyl-2-(phenylamino)pentanoic Acid] | C (a % activity relative to leucine of between -40 and 40%) |
| N[C@H](CC1CCCC1)C(=O)O [Compound I-40] | A (a % activity relative to leucine of ≥40%) |
| CC(C)(C)C[C@H](N)C(N)=O [Compound I-48] | C (a % activity relative to leucine of between -40 and 40%) |
| CC(C)C(F)(F)[C@@H](N)C(=O)O [Compound I-47, (S)-2-amino-3,3-difluoro-4-methylpentanoic Acid] | C (a % activity relative to leucine of between -40 and 40%) |
| CC(C)C[C@H](NS(=O)(=O)C1CCCCC1)C(=O)O [Compound I-17, (S)-2-(cyclohexanesulfonamido)-4-methylpentanoic Acid] | C (a % activity relative to leucine of between -40 and 40%) |
| CC(C)C[C@H](NS(C)(=O)=O)C(=O)O [Compound I-19, (S)-4-methyl-2-(methylsulfonamido)pentanoic Acid] | C (a % activity relative to leucine of between -40 and 40%) |
| CNC(=O)[C@@H](N)CC(C)C [Compound I-21, (S)-2-amino-N,4-dimethylpentanamide] | C (a % activity relative to leucine of between -40 and 40%) |
| CC(C)CNC(=O)[C@@H](N)CC(C)C [Compound I-160] | C (a % activity relative to leucine of between -40 and 40%) |
| COC(=O)/C=C/C(=O)N[C@@H](CC(C)C)C(=O)O [Compound I-45, (S,E)-2-(4-methoxy-4-oxobut-2-enamido)-4-methylpentanoic Acid] | B (a % activity relative to leucine of ≤−40%) |
| CC(C)C[C@](C)(N)C(=O)O [Compound I-32] | A (a % activity relative to leucine of ≥40%) |
| N[C@H](CC(F)(F)F)C(=O)O [Compound I-5, (R)-2-amino-4,4,4-trifluorobutanoic Acid] | B (a % activity relative to leucine of ≤−40%) |
| CC(C)C[C@H](NC(=O)C(C)C)C(=O)O [Compound I-16, (S)-2-isobutyramido-4-methylpentanoic Acid] | C (a % activity relative to leucine of between -40 and 40%) |
| CC(C)C[C@H](N)C(=O)N1CCCCC1 [Compound I-151] | C (a % activity relative to leucine of between -40 and 40%) |

— US20210228523A1, “MODULATORS OF SESTRIN-GATOR2 INTERACTION AND USES THEREOF” (Navitor Pharmaceuticals, Inc., priority 2017, published 2021)
